Assay results taken from PMC11946258, “Self-Assembly, Antimicrobial Properties and Biodegradability of Ester-Functionalized Choline-Based Surface-Active Ionic Liquids” (Molecules, 2025).
“And” between values parts separate entries of the source, which are not always exact repeats. Identical values can stand only once.

Assays:
[1] = Critical micelle concentration by conductivity; type: physicochemical; conditions: aqueous solution, 25 °C
Excerpt: The change in specific conductivity of ester-functionalized choline-based ILs as a function of their concentration was investigated. […] Conductometric plots of the other homologues are presented in the Supplemetary Materials (Figures S10 and S11).
In the pre- and postmicellization zones, the specific conductivity values are represented by two straight lines with different slopes. As a consequence of the micelle’s reduced mobility in comparison to the monomers and the binding of certain counterions to it, a pronounced change in slope is observed. The critical micelle concentration (CMC) value was calculated from the point of inflection in the curve. […] In accordance with the empirical Stauff–Klevens Equation (1), a linear relationship is observed between log CMC and alkyl chain length:log cmc = A − B × n(1)
Conductivity measurements were carried out at 25 °C using an Orion conductivity cell 913005MD with an epoxy/graphite electrode and a Thermo Orion 5 Star multiparameter instrument with a cell constant of 0.475 cm^−1.

MRSA = experiment: MIC broth microdilution; type: cell-based, methicillin-resistant Staphylococcus aureus; conditions: Staphylococcus aureus, ATCC 43300 / MRSA; MRSA ATCC 43300, 24 h, 37 °C
Procedure: (§1) The antimicrobial activity of cholinium-based ILs with an ester group in the alkyl chain was evaluated against a range of representative bacteria and fungi.
(§2) Antibacterial assays were performed against the following microorganisms: Bacillus subtilis ATCC 6633, Staphylococcus epidermidis ATCC 12228, Staphylococcus aureus ATCC 29213, Micrococcus luteus ATCC10240, Listeria monocytogenes ATCC 15313, methicillin-resistant Staphylococcus aureus ATCC 43300, Escherichia coli ATCC 8739, Acinetobacter baumannii ATCC 19606, Klebsiella aerogenes ATCC 13048, Pseudomonas aeruginosa 9027, and Salmonella enterica ATCC14208. The antibacterial activity was assessed in vitro using the minimum inhibitory concentration (MIC) method. MIC is defined as the lowest concentration of an antimicrobial agent that prevents visible bacterial growth after 24 h of incubation at 37 °C. The ionic liquids were dissolved in Mueller–Hinton broth (MBH) at concentrations ranging from 1 to 256 μg/mL. The broth was added (200 μL) to appropriate wells of a 96-well polystyrene microtitre plate. Then, 10 μL of a nutrient broth starter culture of each bacterial strain was added to achieve final inocula of approximately […] colony forming units (CFU)/mL. A growth control using nutrient broth medium without the ionic liquid was included. The plates were incubated 37 °C for 24 h. Bacterial growth was initially observed visually, with increased turbidity indicating cell growth. […] A color change of resazurine from blue to pink indicated bacterial metabolic activity. All the experiments were performed in triplicate to ensure reproducibility.

Acinetobacter baumannii = experiment: MIC broth microdilution; type: cell-based; conditions: ATCC19606; Acinetobacter baumannii ATCC 19606, 24 h, 37 °C
Procedure: as §1, §2

Escherichia coli = experiment: MIC broth microdilution; type: cell-based; conditions: ATCC8739; Escherichia coli ATCC 8739, 24 h, 37 °C
Procedure: as §1, §2

Klebsiella aerogenes = experiment: MIC broth microdilution; type: cell-based; conditions: ATCC13048; Klebsiella aerogenes ATCC 13048, 24 h, 37 °C
Procedure: as §1, §2

Listeria monocytogenes = experiment: MIC broth microdilution; type: cell-based; conditions: ATCC15313; Listeria monocytogenes ATCC 15313, 24 h, 37 °C
Procedure: as §1, §2

Micrococcus luteus = experiment: MIC broth microdilution; type: cell-based; conditions: Micrococcus luteus ATCC10240, 24 h, 37 °C
Procedure: as §1, §2

Pseudomonas aeruginosa = experiment: MIC broth microdilution; type: cell-based; conditions: Pseudomonas aeruginosa 9027, 24 h, 37 °C
Procedure: as §1, §2

Salmonella enterica = experiment: MIC broth microdilution; type: cell-based; conditions: Salmonella enterica ATCC14208, 24 h, 37 °C
Procedure: as §1, §2

Staphylococcus aureus = experiment: MIC broth microdilution; type: cell-based; conditions: ATCC29213; Staphylococcus aureus ATCC 29213, 24 h, 37 °C
Procedure: as §1, §2

[2] = system: Staphylococcus epidermidis; experiment: MIC broth microdilution; type: cell-based; conditions: ATCC12228; Staphylococcus epidermidis ATCC 12228, 24 h, 37 °C
Procedure: as §1, §2

[3] = system: erythrocytes from rabbit blood; experiment: Hemolytic activity; type: cell-based; conditions: concentration inducing 50% hemolysis, PBS pH 7.4, 10 min
Procedure: To perform an initial assessment of cell toxicity, hemolysis has been employed. The hemolytic activity of ester-functionalized choline-based ILs was determined by mesuring the release of haemoglobin in erythrocytes from rabbit blood samples in the presence of these compounds. The HC50 values, representing the concentracion inducing 50% hemolysis, were calculated from the plots of the percentages of hemolysis versus CnECholBr concentration (Figure 7). The HC50 values are compiled in Table 4.
Rabbit blood samples, used to prepare the erythrocyte suspension, were obtained from the animal facility of the Research and Development Center (CID) of the Spanish National Research Council (CID-CSIC) in Barcelona, Spain. The collection of fresh blood from rabbits adhered strictly to the bioethical guidelines stipulated by Spanish legislation, ensuring ethical treatment of the animals and compliance with research protocols. Heparinized blood samples were centrifuged for 10 min at 3000 rpm. The supernatant containing the white cells was discarded, while the erythrocytes were washed three times in PBS (pH 7.4). Erythrocytes were then suspended in PBS at a cell density of 8 × 10^9 cells/mL. A series of different volumes of a concentrated IL solution (10 to 80 μL) were placed in Eppendorf tubes containing 25 μL of erythrocyte suspension and PBS was added to each tube to a total volume of 1 mL [33]. Samples were shaken for 10 min at rt and the tubes were centrifuged (5 min at 10,000 rpm). The percentage of hemolysis was calculated by comparing the absorbance (540 nm) of the supernatant of the samples containing surfactants with that of the hemolyzed control with distilled water. The HC50 (concentration of surfactant that causes 50% hemolysis) was determined from the concentration-response curves.

Vibrio fischeri = Vibrio fischeri bioluminescence inhibition assay; type: cell-based; conditions: Aliivibrio fischeri, 0.5 h; luminescence inhibition, 30-min exposure, 15 °C; read-out: V. fisheri, EC50 (95% CI)
Procedure: To assess the aquatic toxicity of ester-functionalized cholinium-based ILs, a series of toxicity tests were conducted using the saltwater bacterium Vibrio fischeri. The bioluminescence inhibition assay with V. fischeri is a well-standardized and frequently employed method in ecotoxicological studies due to its sensitivity and reliability. The experimental procedure involved exposing V. fischeri to increasing concentrations of ILs and measuring the reduction in bioluminescence after a 30-min period. This bioluminescence reduction serves as a quantitative indicator of the ILs’ aquatic toxicity in marine bacteria.
The V. fisheri bioluminescence assay was used to assess the aquatic toxicity of ester-functionalized choline-based ILs. […] We determined the concentration causing a 50% reduction in bacterial light emission (EC50) through regression analysis. The reported toxicity data are based on a 30-min exposure of the bacteria to the ionic liquid solution at 15 °C.

CCCCCCCCCCCCCCOC(=O)C[N+](C)(C)CCO.[Br-] [C14ECholBr, N-(2-hydroxyethyl)-N,N-dimethyl-2-oxo-2-(tetradecyloxy)ethan-1-aminium bromide]
CMC [1]: 0.7 ± 0.1 mM | MIC (MRSA): > 256 µg/mL | MIC (Acinetobacter baumannii): > 256 µg/mL | MIC (Escherichia coli): > 256 µg/mL | MIC (Klebsiella aerogenes): > 256 µg/mL | MIC (Listeria monocytogenes): > 256 µg/mL | MIC (Micrococcus luteus): 8 µg/mL | MIC (Pseudomonas aeruginosa): > 256 µg/mL | MIC (Salmonella enterica): > 256 µg/mL | MIC (Staphylococcus aureus): 128 µg/mL | MIC [2]: 64 µg/mL | HC50 [3]: 56 µM and 56 ± 1 µM | EC50 (Vibrio fischeri): 0.44 µg/mL

CCCCCCCCCCOC(=O)C[N+](C)(C)CCO [C10ECholBr]
CMC [1]: 11.2 ± 0.8 mM | MIC (MRSA): > 256 µg/mL | MIC (Acinetobacter baumannii): > 256 µg/mL | MIC (Escherichia coli): > 256 µg/mL | MIC (Klebsiella aerogenes): > 256 µg/mL | MIC (Listeria monocytogenes): > 256 µg/mL | MIC (Micrococcus luteus): > 256 µg/mL | MIC (Pseudomonas aeruginosa): > 256 µg/mL | MIC (Salmonella enterica): > 256 µg/mL | MIC (Staphylococcus aureus): > 256 µg/mL | MIC [2]: > 256 µg/mL | HC50 [3]: >2500 µM | EC50 (Vibrio fischeri): 1.7 µg/mL

CCCCCCCCCCCCOC(=O)C[N+](C)(C)CCO [C12ECholBr]
CMC [1]: 4.2 ± 0.5 mM | MIC (MRSA): 64 µg/mL | MIC (Acinetobacter baumannii): > 256 µg/mL | MIC (Escherichia coli): > 256 µg/mL | MIC (Klebsiella aerogenes): > 256 µg/mL | MIC (Listeria monocytogenes): > 256 µg/mL | MIC (Micrococcus luteus): 16 µg/mL | MIC (Pseudomonas aeruginosa): > 256 µg/mL | MIC (Salmonella enterica): > 256 µg/mL | MIC (Staphylococcus aureus): 64 µg/mL | MIC [2]: 64 µg/mL | HC50 [3]: 232 ± 2 µM | EC50 (Vibrio fischeri): 0.27 µg/mL
